The text below walks through data of the NIST ThermoML archive (doi:10.1016/j.fluid.2017.07.002).

Values joined by “and” are separate entries in the source; they are usually repeats but may differ in a detail not shown here. Equal entries are not always repeated. ± gives the expanded uncertainty stated by the source.

The conditions of the data set: Liquid, Closed cell (Static) method.

In the case of `FC(F)F` [trifluoromethane], the “vapor or sublimation pressure” value is on record as 34.35 ± 0.58 kPa (173.86 K); 41.46 ± 0.77 kPa (177.11 K); 62.33 ± 0.9 kPa (183.19 K); 62.29 ± 0.92 kPa (183.2 K); 113.55 ± 3.3 kPa (193.19 K); 600.35 ± 3.2 kPa (228.83 K). Further, the “vapor or sublimation pressure” value (233.16 K) came to 707.03 ± 6.9 kPa and the “vapor or sublimation pressure” value (273.25 K) worked out at 2502.8 ± 13 kPa.

For the compound `C=C(F)C(F)(F)F` [2,3,3,3-tetrafluoro-1-propene], the “vapor or sublimation pressure” value is, setting by setting: (193.26 K) 5.46 ± 0.38 kPa; (193.3 K) 5.69 ± 0.38 kPa; (223 K) 37.74 ± 0.42 kPa; (223.08 K) 37.41 ± 1.1 kPa; (223.11 K) 37.48 ± 1.1 kPa; (233.02 K) 61.64 ± 0.61 kPa. In addition, the “vapor or sublimation pressure” value runs as follows: (233.04 K) 62.24 ± 1.3 kPa; (272.69 K) 310.8 ± 1.5 kPa; (272.75 K) 310.85 ± 1.5 kPa and 310.76 ± 1.5 kPa; (272.78 K) 311.18 ± 1.5 kPa; (272.8 K) 311.8 ± 1.5 kPa; (272.81 K) 311.46 ± 1.5 kPa.

For `CC` [ethane], the “vapor or sublimation pressure” value is given as 53.57 ± 0.85 kPa (173.63 K), 66.42 ± 1.1 kPa (177.24 K), 94.31 ± 1.1 kPa (183.28 K) and 673.93 ± 3.5 kPa (228.82 K).

For `FC(F)(F)C(F)(F)C(F)(F)F` [octafluoropropane], the “vapor or sublimation pressure” value came out at 53.1 ± 1.9 kPa (223.21 K) and 408.18 ± 2 kPa (272.76 K).

As to `FC(F)(F)F` [tetrafluoromethane], the “vapor or sublimation pressure” value runs as follows: (153.23 K) 171.92 ± 5.7 kPa; (193.43 K) 1205.3 ± 6.8 kPa.

What is called vapor or sublimation pressure is the equilibrium pressure above the liquid or solid.
